Assay results published in patent publication US20030215462A1, “Use of UGT inhibitors to increase bioavailability” (priority 2001, published 2003).

Experiments:
UGT1A6 = molecular target: T1, UGT1A6 (Homo sapiens, UniProt P19224)
T1 sequence (P19224 27-532): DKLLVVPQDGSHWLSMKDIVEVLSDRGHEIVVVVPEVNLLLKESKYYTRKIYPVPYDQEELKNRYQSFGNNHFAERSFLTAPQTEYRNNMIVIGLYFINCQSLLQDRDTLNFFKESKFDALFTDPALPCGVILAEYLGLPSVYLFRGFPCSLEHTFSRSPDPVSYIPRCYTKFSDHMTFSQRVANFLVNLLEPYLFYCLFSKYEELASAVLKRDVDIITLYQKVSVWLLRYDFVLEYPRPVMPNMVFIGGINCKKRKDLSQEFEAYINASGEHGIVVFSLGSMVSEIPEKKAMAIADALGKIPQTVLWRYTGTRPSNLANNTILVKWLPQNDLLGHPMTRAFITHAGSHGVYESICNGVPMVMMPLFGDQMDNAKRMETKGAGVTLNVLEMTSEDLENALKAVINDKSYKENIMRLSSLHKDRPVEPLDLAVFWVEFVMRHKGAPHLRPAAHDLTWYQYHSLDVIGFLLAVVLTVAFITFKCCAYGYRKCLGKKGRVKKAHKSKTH

UGT1A8 = molecular target: T2, UGT1A8 (Homo sapiens, UniProt Q9HAW9)
T2 sequence (Q9HAW9 26-530): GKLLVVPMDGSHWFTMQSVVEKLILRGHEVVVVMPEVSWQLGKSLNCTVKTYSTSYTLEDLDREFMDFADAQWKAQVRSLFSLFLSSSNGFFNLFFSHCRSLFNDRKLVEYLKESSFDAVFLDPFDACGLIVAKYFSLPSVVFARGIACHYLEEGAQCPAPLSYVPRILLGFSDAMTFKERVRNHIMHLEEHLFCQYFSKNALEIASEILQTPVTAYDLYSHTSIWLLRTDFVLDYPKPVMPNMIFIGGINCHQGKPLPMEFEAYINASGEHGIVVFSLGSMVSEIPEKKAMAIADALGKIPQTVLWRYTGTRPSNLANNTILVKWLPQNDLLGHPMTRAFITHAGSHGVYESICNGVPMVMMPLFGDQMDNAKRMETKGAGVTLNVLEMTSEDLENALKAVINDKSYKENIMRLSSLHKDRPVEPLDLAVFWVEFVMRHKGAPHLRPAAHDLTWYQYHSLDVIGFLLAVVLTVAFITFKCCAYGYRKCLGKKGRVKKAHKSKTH

Q: Which results are given for `CC(CCc1ccccc1)NCC(O)c1ccc(O)c(C(N)=O)c1` (centres unmarked) [Labetalol, labetalol]?
A: labetalol metabolism, in words (UGT1A6): No detectable metabolism was observed; labetalol metabolism, in words (UGT1A8): No detectable metabolism was observed
